Experimental data as given in ChEMBL document CHEMBL3351449, “Inhibition of FAAH, TRPV1, and COX2 by NSAID-serotonin conjugates” (Bioorg Med Chem Lett, 2014).
Activity calls are given as the source filed them. The calls are words filed in the database; no cut-off is given here.

What was measured:
[1] = target: T1, Transient receptor potential cation channel subfamily V member 1 (Homo sapiens, UniProt Q8NER1); assay: Inhibition of human TRPV1 overexpressed in BEAS-2B cells assessed as residual activity at 50 uM after 30 mins by Fluo-4 AM fluorescence assay; assay type: cell-based
[2] = target: T1, Transient receptor potential cation channel subfamily V member 1; assay: Inhibition of human TRPV1 overexpressed in BEAS-2B cells assessed as residual activity at 250 uM after 30 mins by Fluo-4 AM fluorescence assay; assay type: cell-based
[3] = target: T1, Transient receptor potential cation channel subfamily V member 1; assay: Inhibition of human TRPV1 overexpressed in BEAS-2B cells assessed as calcium flux after 30 mins by Fluo-4 AM fluorescence assay; assay type: cell-based
[4] = target: T2, Prostaglandin G/H synthase 2 (Homo sapiens) (UniProt P35354); assay: Inhibition of human recombinant COX2 assessed as inhibition of ADHP to fluorescent resorufin conversion measured as residual activity at 10 uM by fluorescence assay
T2 sequence (whole entry): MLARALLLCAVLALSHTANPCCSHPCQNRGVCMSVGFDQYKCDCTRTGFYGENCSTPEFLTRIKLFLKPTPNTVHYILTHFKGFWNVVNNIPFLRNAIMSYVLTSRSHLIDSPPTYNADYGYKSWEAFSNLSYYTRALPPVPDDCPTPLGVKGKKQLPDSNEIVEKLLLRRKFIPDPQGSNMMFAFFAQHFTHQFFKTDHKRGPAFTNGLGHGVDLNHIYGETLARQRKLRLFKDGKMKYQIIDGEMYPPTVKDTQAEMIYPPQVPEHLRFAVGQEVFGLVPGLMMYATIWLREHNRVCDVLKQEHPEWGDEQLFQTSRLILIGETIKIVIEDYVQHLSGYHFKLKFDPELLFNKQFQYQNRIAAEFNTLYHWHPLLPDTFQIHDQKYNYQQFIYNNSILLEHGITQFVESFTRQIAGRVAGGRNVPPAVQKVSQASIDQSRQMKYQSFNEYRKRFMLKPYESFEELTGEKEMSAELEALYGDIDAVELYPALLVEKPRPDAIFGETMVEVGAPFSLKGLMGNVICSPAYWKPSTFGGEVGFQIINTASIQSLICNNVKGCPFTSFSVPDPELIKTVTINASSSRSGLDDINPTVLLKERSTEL

[5] = target: T3, Fatty-acid amide hydrolase 1 (Homo sapiens, UniProt O00519); assay: Inhibition of human recombinant FAAH using AMC arachidonoyl amide as substrate by fluorescence assay
T3 sequence (O00519 whole entry): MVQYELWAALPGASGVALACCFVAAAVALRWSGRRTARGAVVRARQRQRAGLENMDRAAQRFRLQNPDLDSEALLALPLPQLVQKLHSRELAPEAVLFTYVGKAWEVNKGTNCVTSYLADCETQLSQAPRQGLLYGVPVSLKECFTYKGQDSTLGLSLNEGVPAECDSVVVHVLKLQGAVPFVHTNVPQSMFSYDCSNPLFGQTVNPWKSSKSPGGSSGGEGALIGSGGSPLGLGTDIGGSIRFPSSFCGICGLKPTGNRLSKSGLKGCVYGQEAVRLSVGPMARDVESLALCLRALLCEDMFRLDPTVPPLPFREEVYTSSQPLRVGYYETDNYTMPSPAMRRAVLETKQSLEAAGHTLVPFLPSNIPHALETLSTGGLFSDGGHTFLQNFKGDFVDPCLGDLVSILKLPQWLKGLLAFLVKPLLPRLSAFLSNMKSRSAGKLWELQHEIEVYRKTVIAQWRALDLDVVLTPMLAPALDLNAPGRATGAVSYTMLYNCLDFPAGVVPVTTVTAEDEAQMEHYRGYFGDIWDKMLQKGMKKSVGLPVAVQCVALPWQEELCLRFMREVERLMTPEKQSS

[6] = target: T4, Fatty-acid amide hydrolase 1 (Homo sapiens) (UniProt O00519); assay: Inhibition of human recombinant FAAH using AMC arachidonoyl amide as substrate assessed as residual activity at 10 uM by fluorescence assay
T4 sequence (whole entry): T3 sequence (O00519 whole entry)

[7] = target: T5, Prostaglandin G/H synthase 2 (Homo sapiens, UniProt P35354); assay: Inhibition of human recombinant COX2 assessed as inhibition of ADHP to fluorescent resorufin conversion by fluorescence assay
T5 sequence (P35354 whole entry): T2 sequence (whole entry)

[8] = target: T4, Fatty-acid amide hydrolase 1 (Homo sapiens); assay: Inhibition of human recombinant FAAH using AMC arachidonoyl amide as substrate assessed as residual activity at 50 uM by fluorescence assay
[9] = target: T1, Transient receptor potential cation channel subfamily V member 1; assay: Inhibition of human TRPV1 overexpressed in BEAS-2B cells at 10 uM after 30 mins by Fluo-4 AM fluorescence assay; assay type: cell-based
[10] = target: T1, Transient receptor potential cation channel subfamily V member 1; assay: Stimulation of human TRPV1 overexpressed in BEAS-2B cells at >10 uM after 30 mins by Fluo-4 AM fluorescence assay; assay type: cell-based

T1 sequence (Q8NER1 whole entry): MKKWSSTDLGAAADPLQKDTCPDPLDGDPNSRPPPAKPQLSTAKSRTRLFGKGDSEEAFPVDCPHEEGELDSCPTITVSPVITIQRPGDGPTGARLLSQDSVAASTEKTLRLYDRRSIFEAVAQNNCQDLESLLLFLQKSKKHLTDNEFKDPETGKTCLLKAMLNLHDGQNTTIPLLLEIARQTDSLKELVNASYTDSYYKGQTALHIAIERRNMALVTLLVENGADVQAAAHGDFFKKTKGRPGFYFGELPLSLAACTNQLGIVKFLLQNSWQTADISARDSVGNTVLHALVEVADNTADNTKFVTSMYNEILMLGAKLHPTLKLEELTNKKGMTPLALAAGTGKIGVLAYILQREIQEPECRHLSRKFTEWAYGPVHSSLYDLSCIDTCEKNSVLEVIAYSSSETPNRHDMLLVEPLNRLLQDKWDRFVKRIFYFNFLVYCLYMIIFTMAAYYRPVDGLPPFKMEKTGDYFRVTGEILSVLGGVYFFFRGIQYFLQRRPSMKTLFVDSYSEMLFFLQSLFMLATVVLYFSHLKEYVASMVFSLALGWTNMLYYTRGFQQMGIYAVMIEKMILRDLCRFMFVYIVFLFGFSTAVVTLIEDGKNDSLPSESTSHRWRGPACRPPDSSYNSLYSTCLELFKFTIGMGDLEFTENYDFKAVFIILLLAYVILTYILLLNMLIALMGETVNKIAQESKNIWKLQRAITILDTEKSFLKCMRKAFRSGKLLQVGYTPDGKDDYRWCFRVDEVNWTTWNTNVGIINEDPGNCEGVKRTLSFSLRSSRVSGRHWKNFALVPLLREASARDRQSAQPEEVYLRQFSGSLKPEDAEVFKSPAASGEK

O=C(c1ccccc1)c1ccc2n1CCC2C(=O)O (stereo unspecified)
Activity [1]: 96%
Activity [2]: 110%

CC(C(=O)NCCc1c[nH]c2ccc(O)cc12)c1ccc(-c2ccccc2)c(F)c1 (stereo unspecified)
IC50 [3]: 9 µM
Activity [4]: 38%
IC50 [5]: 15 µM
Activity [6]: 85%
IC50 [7]: 8 µM

CC(=O)Oc1ccccc1C(=O)NCCc1c[nH]c2ccc(O)cc12
IC50 [3]: 203 µM
Activity [4]: 60%
Activity [6]: 99%

CC(C(=O)O)c1cccc(C(=O)c2ccccc2)c1 (stereo unspecified)
Activity [1]: 103%
Activity [2]: 108%

COc1ccc2c(c1)c(CC(=O)NCCc1c[nH]c3ccc(O)cc13)c(C)n2C(=O)c1ccc(Cl)cc1
IC50 [3]: 48 µM
Activity [4]: 7%
Activity [6]: 94%

COc1ccc2c(c1)c(CC(=O)O)c(C)n2C(=O)c1ccc(Cl)cc1
Activity [1]: 98%
Activity [2]: 82%

O=C(NCCc1c[nH]c2ccc(O)cc12)c1ccccc1O
IC50 [3]: 70 µM
Activity [4]: 51%
Activity [6]: 101%

O=C(O)c1ccccc1Nc1cccc(C(F)(F)F)c1
Activity [1]: 66%
Activity [2]: 36%

O=C(O)Cc1ccccc1Nc1c(Cl)cccc1Cl
Activity [1]: 61%
Activity [2]: 49%

CC(=O)Oc1ccccc1C(=O)O
Activity [1]: 84%
Activity [2]: 91%

CC(C)Cc1ccc(C(C)C(=O)O)cc1 (stereo unspecified)
Activity [1]: 103%
Activity [2]: 112%

CC(C(=O)NCCc1c[nH]c2ccc(O)cc12)c1cccc(Oc2ccccc2)c1 (stereo unspecified)
IC50 [3]: 8 µM
Activity [8]: 105%
Activity [4]: 49%
IC50 [7]: 7 µM

O=C(c1ccccc1)c1ccc2n1CCC2C(=O)NCCc1c[nH]c2ccc(O)cc12 (stereo unspecified)
IC50 [3]: 70 µM
Activity [4]: 43%
Activity [6]: 98%

COc1ccc2cc([C@H](C)C(=O)NCCc3c[nH]c4ccc(O)cc34)ccc2c1
IC50 [3]: 13 µM
Activity [8]: 73%
Activity [4]: 48%
IC50 [7]: 18 µM

COc1ccc2cc([C@H](C)C(=O)O)ccc2c1
Activity [1]: 107%
Activity [2]: 109%

CCCCC/C=C\C/C=C\C/C=C\C/C=C\CCCC(=O)NCCc1c[nH]c2ccc(O)cc12
IC50 [3]: 10 µM
Activity [4]: 66%
IC50 [5]: 16 µM
Activity [6]: 78%
IC50 [7]: 5 µM

CC(C(=O)O)c1ccc(-c2ccccc2)c(F)c1 (stereo unspecified)
Activity [1]: 103%
Activity [2]: 108%

O=C(NCCc1c[nH]c2ccc(O)cc12)c1ccccc1Nc1cccc(C(F)(F)F)c1
IC50 [3]: 10 µM
Activity [4]: 38%
Activity [6]: 107%
inhibition [9]: 40%
Activity [10]: Active

CC(C(=O)NCCc1c[nH]c2ccc(O)cc12)c1cccc(C(=O)c2ccccc2)c1 (stereo unspecified)
IC50 [3]: 45 µM
Activity [4]: 51%
Activity [6]: 88%

CC(C(=O)O)c1cccc(Oc2ccccc2)c1 (stereo unspecified)
Activity [1]: 104%
Activity [2]: 121%

O=C(Cc1ccccc1Nc1c(Cl)cccc1Cl)NCCc1c[nH]c2ccc(O)cc12
IC50 [3]: 19 µM
Activity [4]: 43%
Activity [6]: 98%

CC(C)Cc1ccc(C(C)C(=O)NCCc2c[nH]c3ccc(O)cc23)cc1 (stereo unspecified)
IC50 [3]: 6 µM
Activity [4]: 42%
IC50 [5]: 5 µM
Activity [6]: 75%
IC50 [7]: 10 µM
